# Test results: patent US20260151389A1, “Use of Tetramethylpyrazine Nitrone Derivatives In The Treatment of Ischemic Stroke” (GUANGZHOU MAGPIE PHARMACEUTICALS CO., L.T.D., priority 2021, published 2026)
# Test system: patients with acute ischemic stroke
# Experiment: multicenter, randomized, double-blind, parallel clinical trial in acute ischemic stroke
# Format: in vivo, human
# Settings: for increase in percentage of patients with mRS 0-1 compared to the saline group: non-thrombolytic group, TBN 1400 mg iv twice a day for 7 days
# Description: The present invention adopts a multicenter, randomized, double-blind, parallel trial clinical research design. The patients with acute ischemic stroke included in the clinical trial-center as subjects (all signed informed consent forms) were divided into non-thrombolytic group and thrombolytic group. The non-thrombolytic group consists of the saline group and the TBN group. The thrombolytic group consists of the t-PA group and the combination group of TBN+t-PA.
# Subjects of the tests: Patients diagnosed with acute ischemic stroke were selected by clinical trial centers based on the diagnostic criteria of “Chinese Guidelines for the Diagnosis and Treatment of Acute Ischemic Stroke (2018)”.
# Administration method: TBN (1400 mg) is dissolved in a sodium chloride injection bag (specification: 100 mL) and administered intravenously for 30 minutes. Dose of t-PA: 0.9 mg/Kg/dose; usage: added to physiological saline, 10% of the dose is administered via injected intravenous injection immediately within 1-2 minutes, and the remaining 90% is administered via intravenous drop infusion within 60 minutes. t-PA is administered only once on the first day of acute ischemic stroke. The medication schedule of TBN: D1-D7 administered twice a day, with an interval of 12 hours, for 7 consecutive days.
compound,measurement,setting,value
"Cc1nc(C)c(/C=[N+](\[O-])C(C)(C)C)nc1C [TBN, cis-2-methyl-N-[(3,5,6-trimethylpyrazin-2-)methylene]2-propamine oxide]",safety and tolerability,clinical trial patients,good safety and tolerability
same,increase in percentage of patients with mRS 0-1 compared to the saline group,30th day,6.6 percentage points
same,increase in percentage of patients with mRS 0-1 compared to the saline group,90th day,3.3 percentage points
